The source of these data is ChEMBL document CHEMBL1201862, “PubChem BioAssay data set” (2004).

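Protocol summary: plate cells (96-well), add compound at 5 concentrations, incubate 48 h, interpolate endpoints linearly. GI50 marks 50% less growth.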 Active and inactive are the calls of the source. Cut-off read from the data, not from the text of the source: active = GI50 up to about 1.1 µM and inactive = higher.

Test in all cases: NCI tumour cell line growth inhibition, 48 h
Experiment [1] deals with BT-549.
Experiment [2] concerns CAKI-1.
In experiment [3] the test system is DU-145.
The subject of experiment [4] is EKVX.
Experiment [5] relates to HCT-116.
In experiment [6] the test system is HL-60.
For experiment [7], the system named is HT-29.
Experiment [8] deals with Hs-578T.
The test system of experiment [9] is K562.
The subject of experiment [10] is KM12.
Experiment [11] deals with M14.
Experiment [12] concerns MCF7.
Experiment [13] relates to MOLT-4.
For experiment [14], the system named is NCI-H226.
Experiment [15] has as its system NCI/ADR-RES.
In experiment [16] the test system is OVCAR-5.
In experiment [17] the test system is SK-MEL-2.
For experiment [18], the system named is SNB-19.
In experiment [19] the test system is TK-10.
The test system of experiment [20] is UACC-62.

As for `CC1=NN=C(N)NC1=CC(Sc1ccc(Cl)cc1)c1c(O)ccc2ccccc12` (centres undefined), the GI50 in experiment [1] is 13.6 µM (inactive); in experiment [2], 23.7 µM (inactive); in experiment [3], 16.1 µM (inactive); in [4] it was 18 µM (inactive); in experiment [5], 18.9 µM (inactive); in experiment [6] it was > 10 µM (inactive). In addition, the GI50 is 20.5 µM (inactive) in [7]; 5.25 µM (inactive) in [8]; 38.5 µM (inactive) in experiment [9]; 14.5 µM (inactive) in [10]; 11.9 µM (inactive) in [11]; 20 µM (inactive) in [12]. Also, the GI50 in [13] was 21.1 µM (inactive); in [14], 4.55 µM (inactive); in experiment [15], 20.2 µM (inactive); in experiment [16] it was 23.1 µM (inactive); in [17], 5.02 µM (inactive); in [18], 20.6 µM (inactive). Moreover, the GI50 in experiment [19] was 26.5 µM (inactive); in experiment [20], 9.35 µM (inactive).
As for `Fc1ccc2c(c1)nc1n2C(c2c(F)cccc2F)SC1` (centres undefined), the GI50 in experiment [1] is 42.5 µM (inactive); in [2] it was 32.5 µM (inactive); in experiment [3], > 100 µM (inactive); in experiment [4], 29.2 µM (inactive); in [5], 25.6 µM (inactive); in experiment [6] it was 20.7 µM (inactive). Further, the GI50 in [7] is 31.6 µM (inactive); in experiment [8] it was 47 µM (inactive); in experiment [10] it was 18.2 µM (inactive); in experiment [11], 49.8 µM (inactive); in experiment [12], 42.1 µM (inactive); in [13], 25.8 µM (inactive). Also, the GI50 in [14] was > 100 µM (inactive); in experiment [15] it was 27.1 µM (inactive); in experiment [16], 98.6 µM (inactive); in experiment [17], > 100 µM (inactive); in experiment [18] it was 45.4 µM (inactive); in experiment [19] it was 46.7 µM (inactive). Further, in experiment [20], the GI50 is 45.5 µM (inactive).
For `CCOC(=O)Cc1c(C)c2cc(C(=O)c3ccccc3)c(O)cc2oc1=O`, the GI50 in experiment [1] is 17.8 µM (inactive); in experiment [2], 30.6 µM (inactive); in experiment [3], 30.8 µM (inactive); in [4], 25.5 µM (inactive); in [5], 33.3 µM (inactive); in experiment [6], 24.4 µM (inactive). The GI50 is 39.2 µM (inactive) in experiment [7]; 26.2 µM (inactive) in experiment [8]; 24.7 µM (inactive) in [9]; 34.3 µM (inactive) in experiment [11]; 22.4 µM (inactive) in experiment [12]; 36.1 µM (inactive) in [13]. Moreover, the GI50 in [14] is 27.3 µM (inactive); in experiment [15], 26.1 µM (inactive); in experiment [16], 26 µM (inactive); in experiment [17], 14.9 µM (inactive); in experiment [18], 33.7 µM (inactive); in [19], 43.4 µM (inactive). In experiment [20], the GI50 was 35.3 µM (inactive).
In the case of `CC1(c2ccccc2)CCN(C2CC2)CO1` (centres undefined), the GI50 in [1] was 18.3 µM (inactive); in [2] it was 18.8 µM (inactive); in experiment [3] it was 29.6 µM (inactive); in experiment [4] it was 20.1 µM (inactive); in [5] it was 19.9 µM (inactive); in experiment [6] it was 45.2 µM (inactive). The GI50 in [7] was 17.9 µM (inactive); in experiment [8] it was 19.4 µM (inactive); in experiment [9] it was 15.3 µM (inactive); in experiment [10], 14.9 µM (inactive); in [11], 16.9 µM (inactive); in experiment [12], 16.2 µM (inactive). In addition, the GI50 was 18.3 µM (inactive) in experiment [13]; > 100 µM (inactive) in experiment [14]; 20.7 µM (inactive) in experiment [15]; 17.5 µM (inactive) in experiment [16]; > 100 µM (inactive) in experiment [17]; > 100 µM (inactive) in experiment [18]. Further, the GI50 was 13.8 µM (inactive) in [19] and 18.1 µM (inactive) in [20].
As to `COc1cc(O)c2c(=O)c(OC)c(-c3ccc4c(c3)OCO4)oc2c1OC`, the GI50 was 13.4 µM (inactive) in experiment [1]; > 50 µM (inactive) in experiment [2]; > 50 µM (inactive) in [3]; 39 µM (inactive) in experiment [4]; 49.7 µM (inactive) in [5]; > 50 µM (inactive) in [6]. Also, the GI50 was > 50 µM (inactive) in experiment [7]; 28.1 µM (inactive) in experiment [8]; > 50 µM (inactive) in experiment [9]; > 50 µM (inactive) in experiment [10]; > 50 µM (inactive) in experiment [11]; > 50 µM (inactive) in experiment [12]. The GI50 was > 50 µM (inactive) in experiment [13]; > 50 µM (inactive) in experiment [14]; > 50 µM (inactive) in experiment [15]; > 50 µM (inactive) in experiment [16]; > 50 µM (inactive) in experiment [17]; 25.9 µM (inactive) in experiment [18]. The GI50 in [19] and in [20] was > 50 µM (inactive) in each case.
With `C=C1C(C)C2C(Cc3ccccc3)NC(=O)C23C(OC(C)=O)C=CC(C)(O)C(=O)C(C)C/C=C/C3C1O` (centres undefined), the GI50 was 0.407 µM (active) in experiment [1]; 0.129 µM (active) in experiment [2]; 28.2 µM (inactive) in experiment [3]; 1.8 µM (inactive) in [4]; 3.54 µM (inactive) in experiment [5]; 4.57 µM (inactive) in experiment [6]. In addition, the GI50 in experiment [8] is 0.0652 µM (active); in [9] it was 33.1 µM (inactive); in experiment [10], 90.8 µM (inactive); in [11], 7.24 µM (inactive); in [12], 6.76 µM (inactive); in [14], 3.85 µM (inactive). For the same compound, the GI50 in experiment [15] is > 65.9 µM (inactive); in experiment [16], 68.9 µM (inactive); in experiment [17], 6.22 µM (inactive); in experiment [18], 0.217 µM (active); in experiment [19] it was 0.505 µM (active); in experiment [20], 3.36 µM (inactive).
For `C1CCNCC1.O=C1NC(=S)N/C1=C/c1ccccc1O`, the GI50 in experiment [1], in [2], in experiment [3], in experiment [4], in experiment [5] and in experiment [6] was > 100 µM (inactive) throughout. Also, the GI50 in [7] was > 100 µM (inactive); in experiment [8] it was 26.4 µM (inactive); in experiment [11] it was > 100 µM (inactive); in [12] it was > 100 µM (inactive); in [13], 73.1 µM (inactive); in experiment [14], > 100 µM (inactive). Besides, the GI50 in experiment [15], in experiment [16], in [17], in [18], in experiment [19] and in [20] was > 100 µM (inactive) each time.
In the case of `COC(=O)C1OC(O[C@H]2CC[C@]3(C)[C@H]4CC=C5[C@@H]6CC(C)(C)CC[C@]6(C(=O)OC6OCC(O)C(O)C6OC6OC(C)C(OC7OCC(OC8OCC(O)C(O)C8O)C(O)C7O)C(O)C6O)[C@H](O)C[C@@]5(C)[C@]4(C)CC[C@H]3C2(C)C)C(O)C(O)C1O` (some centres undefined), the GI50 was 2.04 µM (inactive) in experiment [1]; 2.87 µM (inactive) in experiment [2]; 2.13 µM (inactive) in [3]; 2.32 µM (inactive) in experiment [4]; 2.19 µM (inactive) in experiment [5]; 3.21 µM (inactive) in [6]. The GI50 is 2.71 µM (inactive) in experiment [7]; 6.15 µM (inactive) in experiment [8]; 3.72 µM (inactive) in experiment [10]; 1.85 µM (inactive) in experiment [11]; 0.69 µM (active) in experiment [12]; 15.7 µM (inactive) in [13]. Moreover, the GI50 in experiment [14] is 1.52 µM (inactive); in experiment [15], 6.41 µM (inactive); in experiment [16], 2.77 µM (inactive); in experiment [17] it was 3.02 µM (inactive); in experiment [18] it was 3.08 µM (inactive); in experiment [19], 9.51 µM (inactive). In [20], the GI50 is 3.29 µM (inactive).
Take `COc1cc(S(=O)(=O)Nc2ccc(-c3csc(N4C(=O)C(C)SC4c4cccs4)n3)cc2)ccc1Cl` (centres undefined): the GI50 in experiment [1] was 34 µM (inactive); in experiment [2], 50.5 µM (inactive); in [3] it was 20.7 µM (inactive); in [4] it was 57.5 µM (inactive); in [5], 35.1 µM (inactive); in experiment [6] it was 18.7 µM (inactive). Also, the GI50 was 30.5 µM (inactive) in experiment [7]; 6.17 µM (inactive) in experiment [8]; 28.4 µM (inactive) in experiment [9]; 0.931 µM (active) in experiment [10]; 30.8 µM (inactive) in [11]; > 100 µM (inactive) in [12]. Besides, the GI50 is 16 µM (inactive) in [13]; 6.28 µM (inactive) in experiment [14]; > 100 µM (inactive) in experiment [15]; > 100 µM (inactive) in experiment [16]; 6.49 µM (inactive) in experiment [17]; 89.3 µM (inactive) in [20].
`CCCCn1c2c(c3ccccc3c1=O)C(=O)c1ccccc1-2`: the GI50 was > 100 µM (inactive) in [1]; 25.9 µM (inactive) in experiment [2]; 34.5 µM (inactive) in [3]; > 100 µM (inactive) in experiment [4]; > 100 µM (inactive) in experiment [5]; 4.28 µM (inactive) in experiment [6]. For the same compound, the GI50 in experiment [7] was 13.3 µM (inactive); in experiment [8], 33.7 µM (inactive); in [9] it was > 100 µM (inactive); in experiment [10], > 100 µM (inactive); in experiment [11], > 100 µM (inactive); in experiment [12], 15 µM (inactive). The GI50 in [14] is > 100 µM (inactive); in experiment [15] it was > 100 µM (inactive); in experiment [16] it was > 100 µM (inactive); in experiment [17], > 100 µM (inactive); in experiment [19] it was 62.4 µM (inactive); in experiment [20], > 100 µM (inactive).
